Results taken from the supplement of paper PMC13380429.

Tests used:
[1] = tested on: A549-ACE2 infected with SARS-CoV-2; experiment: morphology score (similarity to uninfected cells); higher = more like uninfected cells; conditions: 24 h
[2] = tested on: Vero E6; experiment: cell viability relative to DMSO; higher = less toxic; conditions: 72 h
[3] = tested on: HepG2; experiment: as above; conditions: 72 h
[4] = tested on: U2OS; experiment: as above; conditions: 72 h
[5] = tested on: Caco-2; experiment: as above; conditions: 72 h
[6] = tested on: Calu-3; experiment: as above; conditions: 72 h
[7] = tested on: A549-ACE2; experiment: phospholipidosis EC50; higher = less potent phospholipidosis inducer
[8] = tested on: A549-ACE2; experiment: drug-induced phospholipidosis relative to tamoxifen; higher = more phospholipidosis
[9] = tested on: A549-ACE2 infected with SARS-CoV-2; experiment: SARS-CoV-2 infection rate relative to DMSO; higher = more infection; conditions: 24 h
[10] = tested on: Vero E6; experiment: relative viability EC50 (midpoint between 100% and the lowest measured viability); higher = less toxic; conditions: 72 h
[11] = tested on: HepG2; experiment: as above; conditions: 72 h
[12] = tested on: Caco-2; experiment: as above; conditions: 72 h
[13] = tested on: Calu-3; experiment: as above; conditions: 72 h
[14] = tested on: Vero E6; experiment: drug sensitivity score (DSS) for viability; higher = more toxic; extreme values may be limits of the assay; conditions: 72 h
[15] = tested on: HepG2; experiment: as above; conditions: 72 h
[16] = tested on: U2OS; experiment: as above; conditions: 72 h
[17] = tested on: Caco-2; experiment: as above; conditions: 72 h
[18] = tested on: Calu-3; experiment: as above; conditions: 72 h
[19] = tested on: A549-ACE2 infected with SARS-CoV-2; experiment: cell count relative to DMSO; higher = less toxic; conditions: 24 h

O=S(=O)(NCC1CC1)c1ccc(Nc2nccc(N3CCCc4cc(O)ccc43)n2)cc1 [pyrintegrin]
Conditions | SARS-CoV-2 infection rate [%] | cell count [%] | cell viability [%] | morphology score | phospholipidosis EC50 [µM]
[1], 0.1 µM | – | – | – | 0.18 | –
[1], 0.3 µM | – | – | – | 0.28 | –
[1], 1 µM | – | – | – | 0.52 | –
[1], 3 µM | – | – | – | 0.4 | –
[2], 1 nM | – | – | 90.5 | – | –
[2], 10 nM | – | – | 93.9 | – | –
[2], 100 nM | – | – | 98.9 | – | –
[2], 1000 nM | – | – | 98.3 | – | –
[2], 10000 nM | – | – | 75.3 | – | –
[3], 1 nM | – | – | 102 | – | –
[3], 10 nM | – | – | 103 | – | –
[3], 100 nM | – | – | 107 | – | –
[3], 1000 nM | – | – | 66.6 | – | –
[3], 10000 nM | – | – | 15.5 | – | –
[4], 1 nM | – | – | 99 | – | –
[4], 10 nM | – | – | 97 | – | –
[4], 100 nM | – | – | 97.8 | – | –
[4], 1000 nM | – | – | 96 | – | –
[4], 10000 nM | – | – | 62.4 | – | –
[5], 1 nM | – | – | 98.1 | – | –
[5], 10 nM | – | – | 102 | – | –
[5], 100 nM | – | – | 100 | – | –
[5], 1000 nM | – | – | 110 | – | –
[5], 10000 nM | – | – | 86.2 | – | –
[6], 1 nM | – | – | 95.5 | – | –
[6], 10 nM | – | – | 89.7 | – | –
[6], 100 nM | – | – | 92.8 | – | –
[6], 1000 nM | – | – | 102 | – | –
[6], 10000 nM | – | – | 85 | – | –
[7], 24 h | – | – | – | – | 1.91
[9], 0.1 µM | 104 | – | – | – | –
[9], 0.3 µM | 103 | – | – | – | –
[9], 1 µM | 81 | – | – | – | –
[9], 3 µM | 60 | – | – | – | –
[19], 0.1 µM | – | 104 | – | – | –
[19], 0.3 µM | – | 106 | – | – | –
[19], 1 µM | – | 107 | – | – | –
[19], 3 µM | – | 86 | – | – | –

drug-induced phospholipidosis [%], [8]
Conditions | 0.3 µM | 0.833333 µM | 3.33333 µM | 6.66667 µM | 10 µM
24 h | 5.15 | 22.5 | 132 | 178 | 150
48 h | 3.16 | 12.3 | 135 | – | –
72 h | 2.43 | 7.41 | – | – | –

Conditions | drug sensitivity score | relative viability EC50 [µM]
[10] | – | > 10
[11] | – | 1.19
[12] | – | > 10
[13] | – | > 10
[14] | 1.2 | –
[15] | 9.2 | –
[16] | 2.5 | –
[17] | 0 | –
[18] | 0.1 | –

CCCCCCCCNC(C)C(O)c1ccc(SC(C)C)cc1 (centres undefined) [suloctidil]
Conditions | SARS-CoV-2 infection rate [%] | cell count [%] | cell viability [%] | morphology score | phospholipidosis EC50 [µM]
[1], 0.3 µM | – | – | – | 0.02 | –
[1], 3 µM | – | – | – | 0.31 | –
[1], 10 µM | – | – | – | 0.74 | –
[1], 30 µM | – | – | – | 0.13 | –
[2], 1 nM | – | – | 93.8 | – | –
[2], 10 nM | – | – | 98.3 | – | –
[2], 100 nM | – | – | 93 | – | –
[2], 1000 nM | – | – | 98.3 | – | –
[2], 10000 nM | – | – | 97.4 | – | –
[3], 1 nM | – | – | 98.7 | – | –
[3], 10 nM | – | – | 109 | – | –
[3], 100 nM | – | – | 98.5 | – | –
[3], 1000 nM | – | – | 119 | – | –
[3], 10000 nM | – | – | 102 | – | –
[4], 1 nM | – | – | 98.2 | – | –
[4], 10 nM | – | – | 95 | – | –
[4], 100 nM | – | – | 99.7 | – | –
[4], 1000 nM | – | – | 95.5 | – | –
[4], 10000 nM | – | – | 64.5 | – | –
[5], 1 nM | – | – | 105 | – | –
[5], 10 nM | – | – | 97.3 | – | –
[5], 100 nM | – | – | 99.4 | – | –
[5], 1000 nM | – | – | 101 | – | –
[5], 10000 nM | – | – | 92.6 | – | –
[6], 1 nM | – | – | 99.4 | – | –
[6], 10 nM | – | – | 97.1 | – | –
[6], 100 nM | – | – | 107 | – | –
[6], 1000 nM | – | – | 57 | – | –
[6], 10000 nM | – | – | -0.5 | – | –
[7], 24 h | – | – | – | – | 7.11
[7], 48 h | – | – | – | – | 9.12
[7], 72 h | – | – | – | – | 12.5
[9], 0.3 µM | 99 | – | – | – | –
[9], 3 µM | 83 | – | – | – | –
[9], 10 µM | 26 | – | – | – | –
[9], 30 µM | 25 | – | – | – | –
[19], 0.3 µM | – | 102 | – | – | –
[19], 3 µM | – | 112 | – | – | –
[19], 10 µM | – | 122 | – | – | –
[19], 30 µM | – | 65 | – | – | –

drug-induced phospholipidosis [%], [8]
Conditions | 0.3 µM | 0.833333 µM | 3.33333 µM | 6.66667 µM | 10 µM | 30 µM
24 h | 2.27 | 1.81 | 10.5 | 42.2 | 60 | 84.3
48 h | 4.05 | 0.83 | 9.1 | 35.5 | 57 | 95.6
72 h | 3.93 | -1.43 | 8.76 | 31.3 | 53.9 | 114

Conditions | drug sensitivity score | relative viability EC50 [µM]
[10] | – | > 10
[11] | – | > 10
[12] | – | > 10
[13] | – | 1.12
[14] | 0 | –
[15] | 0 | –
[16] | 2.4 | –
[17] | 0 | –
[18] | 11.1 | –
